# Reference: patent US20070049593A1 (priority 2004, published 2007)
# Where a name gives a salt, the structure may show the parent alone.
# Molecular target: T1, HCV polymerase (Hepatitis C virus genotype 1b, UniProt P26663)
# T1 construct: a region encoding NS5B (J Virol 1991 March, 65(3), 1105-13, 544 amino acids after deletion of 47 amino acids on the C-terminal); 6xHis (C); made in house; host or cells: Escherichia coli
# Test: biochemical
# Set-up: species or system HCV BK strain
# Outline: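 Recombinant HCV BK-strain NS5B (C-terminal 47 aa deleted, His6-tagged, E. coli), 0.5 μg/ml, run with 5 μg/ml in vitro-transcribed RNA template (polyU/3′X), ATP/GTP/CTP 50 μM, UTP 2 μM plus [3H]UTP, pH 7.5, 25° C, 90 min. TCA-precipitated RNA counted by scintillation; IC50 from activity with vs without compound.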
# T1 sequence (P26663 2420-2963): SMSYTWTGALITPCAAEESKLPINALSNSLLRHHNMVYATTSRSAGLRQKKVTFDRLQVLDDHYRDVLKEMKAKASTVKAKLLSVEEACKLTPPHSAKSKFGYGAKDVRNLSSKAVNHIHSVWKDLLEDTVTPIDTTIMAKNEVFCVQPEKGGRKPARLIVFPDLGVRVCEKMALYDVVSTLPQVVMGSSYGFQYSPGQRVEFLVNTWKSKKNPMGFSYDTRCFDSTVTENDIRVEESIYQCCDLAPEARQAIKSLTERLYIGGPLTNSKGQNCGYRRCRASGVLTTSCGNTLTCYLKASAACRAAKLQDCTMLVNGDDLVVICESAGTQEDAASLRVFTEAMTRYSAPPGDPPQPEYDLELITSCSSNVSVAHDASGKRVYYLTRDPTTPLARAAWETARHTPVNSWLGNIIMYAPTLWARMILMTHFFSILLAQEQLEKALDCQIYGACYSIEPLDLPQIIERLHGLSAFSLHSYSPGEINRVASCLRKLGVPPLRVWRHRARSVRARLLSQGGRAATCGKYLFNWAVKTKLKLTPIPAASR
row,SMILES,IC50 [nM]
1,"Cc1ccc2c(c1)N(CC(=O)N1CCCCC1)CCn1c-2c(C2CCCCC2)c2ccc(C(=O)O)cc21 [Example 1-115, 13-cyclohexyl-3-methyl-5-[2-oxo-2-(piperidin-1-yl)ethyl]-6,7-dihydro-5H-benzo[5,6][1,4]diazepino[7,1-a]indole-10-carboxylic acid monohydrochloride]",< 100
2,"COc1ccc2c(c1)N(C(C)C)CCn1c-2c(C2CCCCC2)c2ccc(C(=O)NC3(C(=O)Nc4ccc(/C=C/C(=O)O)cc4)CCC3)cc21 [Example 1-478, (E)-3-[4-({1-[(13-cyclohexyl-5-isopropyl-3-methoxy-6,7-dihydro-5H-benzo[5,6][1,4]diazepino[7,1-a]indole-10-carbonyl)amino]cyclobutanecarbonyl}amino)phenyl]acrylic acid]",< 100
3,"O=C(O)c1ccc2c(C3CCCCC3)c3n(c2c1)CCOc1c(OCCC2CCN(C4CCCC4)CC2)cccc1-3 [Example 2-468, 12-cyclohexyl-4-[2-(1-cyclopentylpiperidin-4-yl)ethoxy]-6,7-dihydro-5-oxa-7a-azadibenzo[a,e]azulene-9-carboxylic acid monohydrochloride]",< 100
4,"CCN(CCO)CCCN1CCn2c(c(C3CCCCC3)c3ccc(C(=O)O)cc32)-c2ccc(C)cc21 [Example 1-512, 13-cyclohexyl-5-{3-[N-ethyl-N-(2-hydroxyethyl)amino]propyl}-3-methyl-6,7-dihydro-5H-benzo[5,6][1,4]diazepino[7,1-a]indole-10-carboxylic acid dihydrochloride]",< 100
5,"CCN(CCO)CCCN1CCn2c(c(C3CCCCC3)c3ccc(C(=O)O)cc32)-c2ccc(Cl)cc21 [Example 1-442, 3-chloro-13-cyclohexyl-5-{3-[N-ethyl-N-(2-hydroxyethyl)amino]propyl}-6,7-dihydro-5H-benzo[5,6][1,4]diazepino[7,1-a]indole-10-carboxylic acid dihydrochloride]",< 100
6,"CCN(CC)CCN1CCn2c(c(C3CCCCC3)c3ccc(C(=O)O)cc32)-c2ccccc21 [Example 1-185, 13-cyclohexyl-5-(2-diethylaminoethyl)-6,7-dihydro-5H-benzo[5,6][1,4]diazepino[7,1-a]indole-10-carboxylic acid dihydrochloride]",< 100
7,"CC(C)(C)OC(=O)N1CCCC(Oc2ccc3c(c2)OCCn2c-3c(C3CCCCC3)c3ccc(C(=O)O)cc32)C1 (centres unmarked) [Example 2-11, 3-(1-tert-butoxycarbonylpiperidin-3-yloxy)-12-cyclohexyl-6,7-dihydro-5-oxa-7a-azadibenzo[a,e]azulene-9-carboxylic acid]",< 100
8,"CC(C)OC1CCCN(CCN2CCn3c(c(C4CCCCC4)c4ccc(C(=O)O)cc43)-c3ccccc32)C1 (centres unmarked) [Example 1-395, 13-cyclohexyl-5-[2-(3-isopropoxypiperidin-1-yl)ethyl]-6,7-dihydro-5H-benzo[5,6][1,4]diazepino[7,1-a]indole-10-carboxylic acid monohydrochloride]",< 100
9,"O=C(O)c1ccc2c(C3CCCCC3)c3n(c2c1)CCN(CCN1CCC[C@@H](COc2ccccc2)C1)c1ccccc1-3 [Example 1-497, 13-cyclohexyl-5-[2-((R)-3-phenoxymethylpiperidin-1-yl)ethyl]-6,7-dihydro-5H-benzo[5,6][1,4]diazepino[7,1-a]indole-10-carboxylic acid dihydrochloride]",< 100
10,"CN1CCC(N(C)CCN2CCn3c(c(C4CCCCC4)c4ccc(C(=O)O)cc43)-c3ccccc32)C1 (centres unmarked) [Example 1-284, 13-cyclohexyl-5-{2-[N-methyl-N-(1-methylpyrrolidin-3-yl)amino]ethyl}-6,7-dihydro-5H-benzo[5,6][1,4]diazepino[7,1-a]indole-10-carboxylic acid dihydrochloride]",< 100
11,"O=C(O)c1ccc2c(C3CCCCC3)c3n(c2c1)CCN(CC(=O)N1CCCC1)c1ccccc1-3 [Example 1-56, 13-cyclohexyl-5-[2-oxo-2-(pyrrolidin-1-yl)ethyl]-6,7-dihydro-5H-benzo[5,6][1,4]diazepino[7,1-a]indole-10-carboxylic acid monohydrochloride]",< 100
12,"COCC1CCN(CCN2CCn3c(c(C4CCCCC4)c4ccc(C(=O)O)cc43)-c3ccc(Cl)cc32)CC1 [Example 1-314, 3-chloro-13-cyclohexyl-5-[2-(4-methoxymethylpiperidin-1-yl)ethyl]-6,7-dihydro-5H-benzo[5,6][1,4]diazepino[7,1-a]indole-10-carboxylic acid dihydrochloride]",< 100
13,"COC[C@@H]1CCCN(CCN2CCn3c(c(C4CCCCC4)c4ccc(C(=O)O)cc43)-c3ccc(OC)cc32)C1 [Example 1-508, 13-cyclohexyl-3-methoxy-5-[2-((R)-3-methoxymethylpiperidin-1-yl)ethyl]-6,7-dihydro-5H-benzo[5,6][1,4]diazepino[7,1-a]indole-10-carboxylic acid dihydrochloride]",< 100
14,"CS(=O)(=O)N1CCN(C(=O)CN2CCn3c(c(C4CCCCC4)c4ccc(C(=O)O)cc43)-c3ccccc32)CC1 [Example 1-70, 13-cyclohexyl-5-[2-(4-methanesulfonylpiperazin-1-yl)-2-oxoethyl]-6,7-dihydro-5H-benzo[5,6][1,4]diazepino[7,1-a]indole-10-carboxylic acid monohydrochloride]",< 100
15,"CC(C)(C)OC(=O)N1CCC(Oc2ccc3c(c2)OCCn2c-3c(C3CCCCC3)c3ccc(C(=O)O)cc32)CC1 [Example 2-10, 3-(1-tert-butoxycarbonylpiperidin-4-yloxy)-12-cyclohexyl-6,7-dihydro-5-oxa-7a-azadibenzo[a,e]azulene-9-carboxylic acid]",< 100
16,"COC(=O)C(Cc1cccc(O)c1)NC(=O)c1ccc2c(C3CCCCC3)c3n(c2c1)CCOc1cc(OC)ccc1-3 (centres unmarked) [Example 2-353, methyl 2-[(12-cyclohexyl-3-methoxy-6,7-dihydro-5-oxa-7a-azadibenzo[a,e]azulene-9-carbonyl)amino]-3-(3-hydroxyphenyl)propionate]",< 100
17,"COC(=O)N1CCC(N(C)CCN2CCn3c(c(C4CCCCC4)c4ccc(C(=O)O)cc43)-c3ccccc32)C1 (centres unmarked) [Example 1-250, 13-cyclohexyl-5-{2-[N-(1-methoxycarbonylpyrrolidin-3-yl)-N-methylamino]ethyl}-6,7-dihydro-5H-benzo[5,6][1,4]diazepino[7,1-a]indole-10-carboxylic acid monohydrochloride]",< 100
18,"O=C(O)c1ccc2c(C3CCCCC3)c3n(c2c1)CCN(CCN1CCSCC1)c1ccccc1-3 [Example 1-9, 13-cyclohexyl-5-[2-(thiomorpholin-4-yl)ethyl]-6,7-dihydro-5H-benzo[5,6][1,4]diazepino[7,1-a]indole-10-carboxylic acid dihydrochloride]",< 100
19,"CCOc1ccc2c(c1)N(C)CCn1c-2c(C2CCCCC2)c2ccc(C(=O)NC3(C(=O)Nc4ccc(OC)c(/C=C/C(=O)O)c4)CCC3)cc21 [Example 1-619, (E)-3-[5-({1-[(13-cyclohexyl-3-ethoxy-5-methyl-6,7-dihydro-5H-benzo[5,6][1,4]diazepino[7,1-a]indole-10-carbonyl)amino]cyclobutanecarbonyl}amino)-2-methoxyphenyl]acrylic acid]",< 100
20,"O=C(O)c1ccc2c(C3CCCCC3)c3n(c2c1)CCOc1c-3cccc1N1CCCCC1 [Example 2-345, 12-cyclohexyl-4-(piperidin-1-yl)-6,7-dihydro-5-oxa-7a-azadibenzo[a,e]azulene-9-carboxylic acid]",< 100
21,"Cc1ccc2c(c1)N(CCN1CCC[C@@H](C(C)(C)O)C1)CCn1c-2c(C2CCCCC2)c2ccc(C(=O)O)cc21 [Example 1-533, 13-cyclohexyl-5-{2-[(R)-3-(1-hydroxy-1-methylethyl)piperidin-1-yl]ethyl}-3-methyl-6,7-dihydro-5H-benzo[5,6][1,4]diazepino[7,1-a]indole-10-carboxylic acid dihydrochloride]",< 100
22,"COc1ccc2c(c1)N(CCN1CCSCC1)CCn1c-2c(C2CCCCC2)c2ccc(C(=O)O)cc21 [Example 1-568, 13-cyclohexyl-3-methoxy-5-[2-(thiomorpholin-4-yl)ethyl]-6,7-dihydro-5H-benzo[5,6][1,4]diazepino[7,1-a]indole-10-carboxylic acid dihydrochloride]",< 100
23,"CCN(CCC1CCN(C(C)=O)CC1)c1cccc2c1OCCn1c-2c(C2CCCCC2)c2ccc(C(=O)O)cc21 [Example 2-232, 4-{N-[2-(1-acetylpiperidin-4-yl)ethyl]-N-ethylamino)-12-cyclohexyl-6,7-dihydro-5-oxa-7a-azadibenzo[a,e]azulene-9-carboxylic acid]",< 100
24,"O=C(O)c1ccc2c(C3CCCCC3)c3n(c2c1)CCN(CCN1CCCCC1)c1c(F)cccc1-3 [Example 1-149, 13-cyclohexyl-4-fluoro-5-[2-(piperidin-1-yl)ethyl]-6,7-dihydro-5H-benzo[5,6][1,4]diazepino[7,1-a]indole-10-carboxylic acid dihydrochloride]",< 100
25,"COc1ccc2c(c1)OCCn1c-2c(C2CCCCC2)c2ccc(C(=O)NC(C)(C)c3nc4cc(C(=O)N5CCC(O)CC5)ccc4[nH]3)cc21 [Example 2-386, N-{1-[5-(4-hydroxypiperidine-1-carbonyl)-1H-benzimidazol-2-yl]-1-methylethyl}-12-cyclohexyl-3-methoxy-6,7-dihydro-5-oxa-7a-azadibenzo[a,e]azulene-9-carboxamide]",< 100
26,"COc1ccc2c(c1)OCCn1c-2c(C2CCCCC2)c2ccc(C(=O)N[C@@H](Cc3c[nH]c4ccc(OCC(=O)O)cc34)c3csc(C)n3)cc21 [Example 2-440, {3-[(S)-2-[(12-cyclohexyl-3-methoxy-6,7-dihydro-5-oxa-7a-azadibenzo[a,e]azulene-9-carbonyl)amino]-2-(2-methylthiazol-4-yl)ethyl]-1H-indol-5-yloxy}acetic acid]",< 100
